The subject of assay [1] is N. gonorrhoeae (FA35/02). The conditions noted are these: description of the resistance of strain 35/02; cited from earlier work.
The subject of a further assay is P. aeruginosa PAO1. Nature of the assay: MIC assay, P. aeruginosa PAO1. In kind it is cell-based. The conditions noted are these: Pseudomonas aeruginosa, PAO1, P. aeruginosa PAO1.
Assay [2] has as its system N. gonorrhoeae (FA35/02). Nature of the assay: MIC assay, N. gonorrhoeae 35/02. In kind it is cell-based. The conditions noted are these: drug-resistant strain; for MIC: Neisseria gonorrhoeae. The protocol: MICs are determined according to the NCCLS protocol using 96-well plates. Briefly, diluted bacterial cells (10^6 cells/mL) are added into each well of the 96-well plates containing LB medium with 5% DMSO and various concentrations of the compound of disclosure. After incubation of the plates for 22 hours at 37° C., [4,5-dimethylthiazol-2-yl]-2,5-diphenyltetrazolium bromide solution (MTT) is added (final concentration, 0.2 mg/mL) and incubated at 37° C. for another 3 hrs. MIC is determined as the lowest concentration of an antibiotic that prevented color change (yellow to purple).
The antibiotic activities of several exemplary compounds useful in the methods of the disclosure are evaluated by measurements of minimum inhibitory concentrations (MICs) using two N. gonorrhoeae strains: FA19 (a drug-sensitive strain) and 35/02 (drug-resistant strain.) FA19 is an isolate from uncomplicated infection and was lyophilized in 1962. […] The strain is being sequenced to elucidate the mechanisms involved in high-level chromosomally mediated resistance.

The next assay deals with N. gonorrhoeae H041. Nature of the assay: Disk diffusion assay, N. gonorrhoeae H041. Conditions: Neisseria gonorrhoeae, disc 6 mm, read-out: diameter of the growth inhibition, H041; for zone of inhibition at 0.2 µg/disc: H041, 0.2 μg per disc; for zone of inhibition at 2 µg/disc: H041, 2.0 μg per disc; for zone of inhibition at 20 µg/disc: H041, 20 μg per disc. The assay is classed as cell-based. Here is the method:
(§1) An assay was performed on two strains of Acinetobacter Baumannii: antibiotic susceptible strain (Sus. A.b. Isolate), and multidrug-resistant strains (MDR A.b. Isolate). […] Activity is measured as the diameter (in mm) of the growth inhibition.
(In general: In agar diffusion tests the substance spreads into inoculated agar from a disc or well.)

Assay [3] deals with N. gonorrhoeae F89 (high-level cefixime and ceftriaxone resistance). Nature of the assay: Disk diffusion assay, N. gonorrhoeae F89. The assay is classed as cell-based. Conditions: Neisseria gonorrhoeae, disc 6 mm, read-out: diameter of the growth inhibition, F89; for zone of inhibition at 0.2 µg/disc: 0.2 μg per disc; for zone of inhibition at 2 µg/disc: 2.0 μg per disc; for zone of inhibition at 20 µg/disc: 20 μg per disc. Here is the method:
as §1

For the next assay, the system named is E. coli W3110. Nature of the assay: microbe, parasite or virus in culture. In kind it is cell-based. Conditions: Escherichia coli, W3110, 22 h, wild-type E. coli W3110; 22 hours at 37° C., MTT.
The subject of assay [4] is N. gonorrhoeae 35/02 (drug-resistant strain). Nature of the assay: Disk diffusion assay, N. gonorrhoeae 35/02. The assay is classed as cell-based. Conditions: Neisseria gonorrhoeae, disc 6 mm, read-out: diameter of the growth inhibition, 35/02; for zone of inhibition at 0.2 µg/disc: 0.2 μg per disc; for zone of inhibition at 2 µg/disc: 2.0 μg per disc; for zone of inhibition at 20 µg/disc: 20 μg per disc. Here is the method: as §1

Another assay has as its system E. coli W3110PA. Nature of the assay: microbe, parasite or virus in culture. The assay is classed as cell-based. The conditions noted are these: Escherichia coli, W3110PA, E. coli with native lpxC replaced by that of P. aeruginosa.
For assay [5], the system named is N. gonorrhoeae FA19 (a drug-sensitive strain). Nature of the assay: Disk diffusion assay, N. gonorrhoeae FA19. The assay is classed as cell-based. Conditions: Neisseria gonorrhoeae, disc 6 mm, read-out: diameter of the growth inhibition, FA19; for zone of inhibition at 0.2 µg/disc: 0.2 μg per disc; for zone of inhibition at 2 µg/disc: 2.0 μg per disc; for zone of inhibition at 20 µg/disc: 20 μg per disc. Here is the method:
as §1

Assay [6] has as its system F. novicida U112 (FNU112). Nature of the assay: microbe, parasite or virus in culture. Conditions: Francisella tularensis, read-out: MIC FNU112. The assay is classed as cell-based.
Another assay has as its system E. coli W3110NG. Nature of the assay: MIC assay, E. coli W3110NG. In kind it is cell-based. The conditions noted are these: Escherichia coli.

Values after ≈ are worked out from the molar mass of the structure shown.

Consider penicillin, for which, in the assay with N. gonorrhoeae (FA35/02) [1], the “MIC of reference antibiotics against N. gonorrhoeae 35/02” value was 6 µg/mL.
As for `C[C@@](O)(C(F)F)[C@H](NCCCc1ccc(-c2ccccc2)cc1)C(=O)NO` [Example 11, (2S,3S)-2-(3-(biphenyl-4-yl)propylamino)-4,4-difluoro-N,3-dihydroxy-3-methylbutanamide], the MIC in the assay with P. aeruginosa PAO1 is 2.5 µg/mL (≈ 6.61 µM); against N. gonorrhoeae (FA35/02) [2] it was 0.03 to 0.06 µg/mL (≈ 0.0793 to 0.159 µM); in the assay with E. coli W3110 it was 1.25 µg/mL (≈ 3.3 µM); with E. coli W3110PA it was 1.25 µg/mL (≈ 3.3 µM). Also, the “MIC N. gonorrhoeae (FA35/02)” value in the assay with N. gonorrhoeae (FA35/02) [2] is 0.03 µg/mL (≈ 0.0793 µM). The zone of inhibition at 0.2 µg/disc is 11 mm with N. gonorrhoeae H041, 19 mm in [3], 14 mm in assay [4] and 18 mm in [5]. Also, the zone of inhibition at 2 µg/disc in the assay with N. gonorrhoeae H041 turned out to be 20 mm; in assay [3] it was 26 mm; in [4], 23 mm; in assay [5] it was 25 mm. Also, the zone of inhibition at 20 µg/disc was 27 mm with N. gonorrhoeae H041, 33 mm in [3], 26 mm in assay [4] and 30 mm in [5].
In the case of `CC(NCCCc1ccc(-c2ccccc2)cc1)(C(=O)NO)C(C)(O)C(F)F` (stereo not drawn) [Example 10, 2-(3-(biphenyl-4-yl)propylamino)-4,4-difluoro-N,3-dihydroxy-2,3-dimethylbutanamide], the MIC amounted to 2.5 µg/mL (≈ 6.37 µM) against P. aeruginosa PAO1, 0.06 µg/mL (≈ 0.153 µM) in the assay with N. gonorrhoeae (FA35/02) [2] and 61.2 µg/mL (≈ 156 µM) against E. coli W3110. For the same compound, the zone of inhibition at 0.2 µg/disc in the assay on N. gonorrhoeae H041 turned out to be 13 mm; in [3], 20 mm; in [4], 15 mm; in assay [5], 17 mm. The zone of inhibition at 2 µg/disc with N. gonorrhoeae H041 is 20 mm; in assay [3], 28 mm; in assay [4], 20 mm; in assay [5], 25 to 27 mm. Moreover, the zone of inhibition at 20 µg/disc in the assay with N. gonorrhoeae H041 was 27 mm; in assay [3] it was 35 mm; in assay [4], 27 mm; in assay [5] it was 30 mm.
Consider `C[C@@H](O)[C@H](NCc1ccc(-c2ccccc2)cc1)C(=O)NO` [Example 9, (2S,3R)-2-(biphenyl-4-ylmethylamino)-N,3-dihydroxybutanamide], for which the MIC in the assay with P. aeruginosa PAO1 is 5.4 µg/mL (≈ 18 µM); in assay [6], greater than 5 µg/mL; with E. coli W3110, 25 µg/mL (≈ 83.2 µM); against E. coli W3110NG, greater than 50 µg/mL; in the assay with E. coli W3110PA it was 4.8 µg/mL (≈ 16 µM).
Regarding `C[C@@](O)(C(F)F)[C@H](NC(=O)CCc1ccc(-c2ccccc2)cc1)C(=O)NO` [Example 14, (2S,3S)-2-(3-(biphenyl-4-yl)propanamido)-4,4-difluoro-N,3-dihydroxy-3-methylbutanamide], the MIC was determined as 0.25 µg/mL (≈ 0.637 µM) against N. gonorrhoeae (FA35/02) [2], 12.5 µg/mL (≈ 31.9 µM) in assay [6], 6.25 µg/mL (≈ 15.9 µM) against E. coli W3110 and 12.5 µg/mL (≈ 31.9 µM) in the assay with E. coli W3110PA. For the same compound, the zone of inhibition at 0.2 µg/disc in the assay with N. gonorrhoeae H041 worked out at 7 mm; in assay [3], 18 mm; in [4], 14 mm; in assay [5], 18 mm. The zone of inhibition at 2 µg/disc stood at 20 mm in the assay with N. gonorrhoeae H041, 27 mm in [3], 22 mm in assay [4] and 27 mm in assay [5]. Besides, the zone of inhibition at 20 µg/disc in the assay on N. gonorrhoeae H041 came out at 26 mm; in assay [3], 34 mm; in [4] it was 28 mm; in assay [5], 30 mm.
Take `CO/N=C(\C(=O)N[C@@H]1C(=O)N2C(C(=O)O)=C(CSc3nc(=O)c(=O)[nH]n3C)CS[C@H]12)c1csc(N)n1` [ceftriaxone]: the “MIC of reference antibiotics against N. gonorrhoeae 35/02” value with N. gonorrhoeae (FA35/02) [1] was 0.12 µg/mL.
`COc1ccc(-c2ccn(CCC(C)(C(=O)NO)S(C)(=O)=O)c(=O)c2)cc1` (stereo not drawn) [Example 13, N-hydroxy-4-(4-(4-methoxyphenyl)-2-oxopyridin-1 (2H)-yl)-2-methyl-2-(methylsulfonyl)butanamide]: the MIC was less than 0.78 µg/mL in the assay with P. aeruginosa PAO1; 1.25 µg/mL (≈ 3.17 µM) in [6]; less than 0.78 µg/mL against E. coli W3110; 1.25 µg/mL (≈ 3.17 µM) with E. coli W3110NG; less than 0.78 µg/mL against E. coli W3110PA.
